Target: HIV-1 protease (Human immunodeficiency virus type 1 group M subtype B, UniProt P04585)
Test: Inhibition constants against HIV-1 protease (method of Pennington et al.)
Type: biochemical
Conditions: HIV-1 protease; read-out: Ki value
Text: We measured the inhibition constants of the compounds listed in Table VII against HIV-1 protease using the above-cited method of Pennington et al.

Row | SMILES | Ki
1 | NC(=O)C[C@H](NC(=O)c1ccc2ccccc2n1)C(=O)N[C@@H](Cc1ccccc1)[C@H](O)CN(Cc1ccccc1)S(=O)(=O)c1cccc(S(N)(=O)=O)c1 [Compound 10, N-1-(1-(S)-Benzyl-3-(benzyl-(3-sulfamoyl-benzenesulfonyl)-amino)-2-(syn)-hydroxy-propyl)-2-((quinoline-2-carbonyl)-amino)-succinamide] | 4 nM
2 | CC(=O)Nc1ccc(S(=O)(=O)N(C)C[C@@H](O)[C@H](Cc2ccccc2)NC(=O)O[C@H]2CCOC2)cc1 [Compound 101] | 250 nM
3 | CC(C)CN(C[C@@H](O)[C@H](Cc1ccccc1)NC(=O)O[C@H]1CCOC1)S(=O)(=O)N(C)C [Compound 69] | 42 nM
4 | CCOC(=O)N[C@@H](Cc1ccccc1)[C@H](O)CN(CC(C)C)S(=O)(=O)c1ccc(Cl)c(Cl)c1 [Compound 119] | 1.8 nM
5 | CN(C)S(=O)(=O)N(Cc1ccccc1)C[C@@H](O)[C@H](Cc1ccccc1)NC(=O)[C@H](CC(N)=O)NC(=O)c1ccc2ccccc2n1 [Compound 11] | 34 nM
6 | CC(C)CN(C[C@@H](O)[C@H](Cc1ccccc1)NC(=O)O[C@H]1CCOC1)S(=O)(=O)c1ccc([N+](=O)[O-])cc1 [Compound 167, N-((2 syn,3S)-2-Hydroxy-4-phenyl-3-((S)-tetrahydrofuran-3-yloxycarbonylamino)-butyl)-N-isobutyl-4-nitro-benzenesulfonamide] | 0.45 nM
7 | CC(=O)Nc1cc(S(=O)(=O)N(CC(C)C)C[C@@H](O)[C@H](Cc2ccccc2)NC(=O)[C@H](CC(N)=O)NC(=O)c2ccc3ccccc3n2)ccc1F [Compound 16, (S)-N-1-(3-((3-Acetylamino-4-fluoro-benzenesulfonyl)-isobutyl-amino)-(1S,2 syn)-1-benzyl-2-hydroxy-propyl)-2-((quinoline-2-carbonyl)-amino)-succinamide] | < 0.1 nM
8 | CN(C[C@@H](O)[C@H](Cc1ccccc1)NC(=O)OC(C)(C)C)S(=O)(=O)c1ccc(F)cc1 [Compound 127] | 650 nM
9 | CC(=O)Nc1cccc(S(=O)(=O)N(CC(C)C)C[C@@H](O)[C@H](Cc2ccccc2)NC(=O)[C@H](CC(N)=O)NC(=O)c2ccc3ccccc3n2)c1 [Compound 19, (S)-N-1-(3-((3-Acetylamino-benzenesulfonyl)-isobutyl-amino)-(1S,2 syn)-1-benzyl-2-hydroxy-propyl)-2-((quinoline-2-carbonyl)-amino)-succinamide] | < 0.1 nM
10 | CC(C)CN(C[C@@H](O)[C@H](Cc1ccccc1)NC(=O)[C@@H](NC(=O)OCc1ccccn1)C(C)C)S(=O)(=O)N(C)C [Compound 24] | 32500 nM
11 | CC(=O)Nc1ccc(S(=O)(=O)N(CC(C)C)C[C@@H](O)[C@H](Cc2ccccc2)NC(=O)C(=O)NC(C)(C)C)cc1 [Compound 41] | 220 nM
12 | NC(=O)C[C@H](NC(=O)c1ccc2ccccc2n1)C(=O)N[C@@H](Cc1ccccc1)[C@H](O)CN(Cc1ccccc1)S(=O)(=O)c1ccc(-c2ccon2)s1 [Compound 6, (S)-N-1-(1-Benzyl-3-(benzyl-(5-isoxazol-3-yl-thiophene-2-sulfonyl)-amino)-(1S,2 syn)-1-benzyl-2-hydroxy-propyl)-2-((quinoline-2-carbonyl)-amino)-succinamide] | 3 nM
13 | COCCOC(=O)N[C@@H](Cc1ccccc1)[C@H](O)CN(CC(C)C)S(=O)(=O)c1ccc(NC(C)=O)cc1 [Compound 34] | 17 nM
14 | CC(C)CN(C[C@@H](O)[C@H](Cc1ccccc1)NC(=O)O[C@H]1CCOC1)S(=O)(=O)c1ccoc1 [Compound 113] | 3 nM
15 | O=C(N[C@@H](Cc1ccccc1)[C@H](O)CN(CC1CCCC1)S(=O)(=O)c1ccc([N+](=O)[O-])cc1[N+](=O)[O-])O[C@H]1CCOC1 [Compound 172] | 21 nM
16 | CC(C)CN(C[C@@H](O)[C@H](Cc1ccccc1)NC(=O)OCc1cccnc1)S(=O)(=O)c1ccc(F)cc1 [Compound 98, 4-Fluoro-N-((2 syn,3S)-2-hydroxy-4-phenyl-3-(pyridin-3-yl-methoxycarbonylamino)-butyl)-N-isobutyl-benzenesulfonamide] | 0.5 nM
17 | COc1ccc(S(=O)(=O)N(CC2CCCC2)C[C@@H](O)[C@H](Cc2ccccc2)NC(=O)OCc2cccnc2)cc1 [Compound 142] | < 0.1 nM
18 | O=C(N[C@@H](Cc1ccccc1)[C@H](O)CN(CC1CCCC1)S(=O)(=O)c1ccc(OC(F)(F)F)cc1)O[C@H]1CCOC1 [Compound 151] | 0.8 nM
19 | CC(C)CN(C[C@@H](O)[C@H](Cc1ccccc1)NC(=O)O[C@H]1CCOC1)S(=O)(=O)c1ccc(F)c(F)c1 [Compound 124] | 1.1 nM
20 | CC(=O)Nc1ccc(S(=O)(=O)N(CC(C)C)C[C@@H](O)[C@H](Cc2ccccc2)NC(=O)[C@@H](NC(=O)OCc2ccccn2)C(C)C)cc1 [Compound 22] | 1 nM
21 | COc1ccc(S(=O)(=O)N(CCN2CCCCC2)C[C@@H](O)[C@H](Cc2ccccc2)NC(=O)O[C@H]2CCOC2)cc1 [Compound 1014] | 9300 nM
22 | CC(=O)Nc1ccc(S(=O)(=O)N(CC(C)C)C[C@@H](O)[C@H](Cc2ccccc2)NC(=O)OCc2cccnc2)cc1 [Compound 44, N-(4-(((2 syn,3S)-2-Hydroxy-4-phenyl-3-(pyridin-3-yl-methoxycarbonylamino)-butyl)-isobutyl-sulfamoyl)-phenyl)-acetamide] | 5 nM
23 | CC(C)CN(C[C@@H](O)[C@H](Cc1ccccc1)NC(=O)[C@H](CC(N)=O)NC(=O)c1ccc2ccccc2n1)S(=O)(=O)c1ccc(F)cc1 [Compound 14, (S)-N-1-(1-(S)-Benzyl-3-((4-fluoro-benzenesulfonyl)-isobutyl-amino)-2-(syn)-hydroxy-propyl)-2-((quinoline-2-carbonyl)-amino)-succinamide] | 0.1 nM

Row | SMILES | Ki
24 | C=CCOC(=O)N[C@@H](Cc1ccccc1)[C@H](O)CN(CC(C)C)S(=O)(=O)c1ccc(OC)cc1 [Compound 154] | 0.5 nM
25 | COc1ccc(S(=O)(=O)N(CC(C)C)C[C@@H](O)[C@H](Cc2ccccc2)NC(=O)OCc2ccncc2)cc1 [Compound 163, N-((2 syn,3S)-2-Hydroxy-4-phenyl-3-(pyridin-4-yl-methoxycarbonylamino)-butyl)-N-isobutyl-4-methoxy-benzenesulfonamide] | 0.5 nM
26 | COc1ccc(S(=O)(=O)N(CC(C)C)C[C@@H](O)[C@H](Cc2ccccc2)NC(=O)O[C@H]2CCOC2)cc1OC [Compound 123] | 10 nM
27 | CC(C)CN(C[C@@H](O)[C@H](Cc1ccccc1)NC(=O)O[C@H]1CCOC1)S(=O)(=O)c1cccc2nonc12 [Compound 60] | 4 nM
28 | C=C(C)COC(=O)N[C@@H](Cc1ccccc1)[C@H](O)CN(CC(C)C)S(=O)(=O)c1ccc(NC(C)=O)cc1 [Compound 105] | 7.5 nM
29 | CC(=O)Nc1ccc(S(=O)(=O)N(CC(C)C)C[C@@H](O)[C@H](Cc2ccccc2)NC(=O)C(=O)C(C)(C)C)cc1 [Compound 1001] | 220 nM
30 | CC(C)CN(C[C@@H](O)[C@H](Cc1ccccc1)NC(=O)OC(C)(C)C)S(=O)(=O)c1ccc2nonc2c1 [Compound 64] | 3 nM
31 | NC(=O)C[C@H](NC(=O)c1ccc2ccccc2n1)C(=O)N[C@@H](Cc1ccccc1)[C@H](O)CN(Cc1ccccc1)S(=O)(=O)c1ccccc1 [Compound 1] | 4 nM
32 | CC(=O)Nc1ccc(S(=O)(=O)N(CC(C)C)C[C@@H](O)[C@H](Cc2ccccc2)NC(=O)OCCN2CCCC2=O)cc1 [Compound 30] | 61 nM
33 | CC(C)CN(C[C@@H](O)[C@H](Cc1ccccc1)NC(=O)O[C@H]1CCOC1)S(=O)(=O)c1cccc(Cl)c1 [Compound 138, 3-Chloro-N-((2 syn,3S)-2-hydroxy-4-phenyl-3-((S)-tetrahydrofuran-3-yloxycarbonylamino)-butyl)-N-isobutyl-benzenesulfonamide] | 1.4 nM
34 | COc1ccc(S(=O)(=O)N(C[C@@H](O)[C@H](Cc2ccccc2)NC(=O)O[C@H]2CCOC2)CC(C)(C)O)cc1 [Compound 1010] | 20 nM
35 | C=C(C)CN(C[C@@H](O)[C@H](Cc1ccccc1)NC(=O)O[C@H]1CCOC1)S(=O)(=O)c1ccc(OC)cc1 [Compound 1006] | 8 nM
36 | CCCOC(=O)N[C@@H](Cc1ccccc1)[C@H](O)CN(CC(C)C)S(=O)(=O)c1ccc(NC(C)=O)c(Cl)c1 [Compound 90] | 93 nM
37 | CC(C)CN(C[C@@H](O)[C@H](Cc1ccccc1)NC(=O)O[C@@H](C)c1ccccc1)S(=O)(=O)c1cccc2nonc12 [Compound 56] | 60 nM
38 | CC(=O)Nc1ccc(S(=O)(=O)N(CC(C)C)C[C@@H](O)[C@H](Cc2ccccc2)NC(=O)NCc2ccccc2)cc1 [Compound 33] | 80 nM
39 | COc1ccc(S(=O)(=O)N(CC2CCCO2)CC(O)C(Cc2ccccc2)NC(=O)OC2CCOC2)cc1 (stereo not drawn) [Compound 1007] | 42 nM
40 | COc1ccc(S(=O)(=O)N(C)C[C@@H](O)[C@H](Cc2ccccc2)NC(=O)O[C@H]2CCOC2)cc1 [Compound 1005] | 250 nM
41 | COc1ccc(S(=O)(=O)N(CC2CCCC2)C[C@@H](O)[C@H](Cc2ccccc2)NC(=O)O[C@H]2CCOC2)cc1 [Compound 140, N-cyclopentylmethyl-N-((2 syn,3S)-2-hydroxy-4-phenyl-3-((S)-tetrahydrofuran-3-yloxycarbonylamino)-butyl)-4-methoxy-benzenesulfonamide] | < 0.1 nM
42 | O=C1N[C@H](COC(=O)N[C@@H](Cc2ccccc2)[C@H](O)CN(CC2CCCC2)S(=O)(=O)c2ccc(Cl)cc2)CO1 [Compound 139, 4-Chloro-N-cyclopentylmethyl-N-(2-(syn)-hydroxy-3-((2-oxazolidon-4-(S)-yl-methyl)-oxycarbonylamino)-4-phenyl-butyl)-benzenesulfonamide] | 1.2 nM
43 | CC(C)CN(CC(O)C(Cc1ccccc1)NC(=O)C(CC(N)=O)NC(=O)c1ccc2ccccc2n1)S(=O)(=O)c1ccc(-c2ccon2)s1 (stereo not drawn) [Compound 194] | 350 nM
44 | CC(=O)Nc1ccc(S(=O)(=O)N(CC(C)C)C[C@@H](O)[C@H](Cc2ccccc2)NC(=O)C(NC(N)=O)NC(N)=O)cc1 [Compound 67] | 7400 nM
45 | C=CCCOC(=O)N[C@@H](Cc1ccccc1)[C@H](O)CN(CC(C)C)S(=O)(=O)c1ccc(NC(C)=O)cc1 [Compound 36] | 19 nM

— US20080293727A1, “Novel sulfonamide inhibitors of aspartyl protease” (priority 1992, published 2008)
